Reference: the NIST ThermoML archive (doi:10.1016/j.fluid.2012.11.011)

Assay: osmotic coefficient (dimensionless); mn = molality of the nth substance listed, in mol/kg
Details: 298.15 K, Liquid, isopiestic method

CC1(C)S[C@@H]2[C@H](NC(=O)Cc3ccccc3)C(=O)N2[C@H]1C(=O)[O-].[Na+] + O
Details | osmotic coefficient
2.442 kPa, m1 = 9.082 | 0.796
2.452 kPa, m1 = 9.136 | 0.779
2.606 kPa, m1 = 7.249 | 0.749
2.623 kPa, m1 = 7.416 | 0.708
2.757 kPa, m1 = 5.709 | 0.678
2.901 kPa, m1 = 3.775 | 0.652
2.919 kPa, m1 = 3.9 | 0.585
2.93 kPa, m1 = 3.429 | 0.636
2.93 kPa, m1 = 3.558 | 0.612
2.958 kPa, m1 = 3.303 | 0.582
2.986 kPa, m1 = 2.627 | 0.63
2.989 kPa, m1 = 2.675 | 0.61
2.989 kPa, m1 = 2.704 | 0.603
3.002 kPa, m1 = 2.483 | 0.608
3.006 kPa, m1 = 2.489 | 0.592
3.007 kPa, m1 = 2.326 | 0.629
3.007 kPa, m1 = 2.366 | 0.62
3.009 kPa, m1 = 2.334 | 0.618
3.033 kPa, m1 = 2.001 | 0.612
3.049 kPa, m1 = 1.757 | 0.616
3.05 kPa, m1 = 1.757 | 0.61
3.068 kPa, m1 = 1.28 | 0.705
3.089 kPa, m1 = 1.073 | 0.672
3.091 kPa, m1 = 1.085 | 0.647
3.123 kPa, m1 = 0.457 | 0.903
3.126 kPa, m1 = 0.4044 | 0.966
3.17 kPa, m1 = 0 | 1

CC1(C)S[C@@H]2[C@H](NC(=O)[C@H](N)c3ccccc3)C(=O)N2[C@H]1C(=O)[O-].[Na+] [Ampicillin Sodium] + O
Details | osmotic coefficient
2.467 kPa, m1 = 7.468 | 0.93
2.565 kPa, m1 = 6.773 | 0.867
2.654 kPa, m1 = 5.991 | 0.822
2.747 kPa, m1 = 5.699 | 0.696
2.901 kPa, m1 = 4.439 | 0.553
2.908 kPa, m1 = 4.261 | 0.562
2.926 kPa, m1 = 4.103 | 0.54
2.942 kPa, m1 = 3.839 | 0.538
2.982 kPa, m1 = 3.301 | 0.513
3.005 kPa, m1 = 2.932 | 0.504
3.006 kPa, m1 = 2.958 | 0.499
3.008 kPa, m1 = 2.867 | 0.506
3.011 kPa, m1 = 2.855 | 0.498
3.031 kPa, m1 = 2.397 | 0.519
3.032 kPa, m1 = 2.398 | 0.514
3.052 kPa, m1 = 1.912 | 0.548
3.066 kPa, m1 = 1.699 | 0.546
3.076 kPa, m1 = 1.476 | 0.563
3.079 kPa, m1 = 1.392 | 0.578
3.081 kPa, m1 = 1.369 | 0.575
3.098 kPa, m1 = 1.134 | 0.564
3.099 kPa, m1 = 1.093 | 0.576
3.102 kPa, m1 = 0.9835 | 0.612
3.103 kPa, m1 = 0.9725 | 0.612
3.103 kPa, m1 = 1.029 | 0.578
3.104 kPa, m1 = 1.015 | 0.576
3.111 kPa, m1 = 0.8951 | 0.586
3.113 kPa, m1 = 0.8284 | 0.612
3.113 kPa, m1 = 0.8511 | 0.591
3.118 kPa, m1 = 0.7369 | 0.617
3.119 kPa, m1 = 0.6767 | 0.67
3.119 kPa, m1 = 0.6922 | 0.651
3.119 kPa, m1 = 0.7007 | 0.644
3.119 kPa, m1 = 0.7507 | 0.597
3.13 kPa, m1 = 0.5215 | 0.672
3.131 kPa, m1 = 0.525 | 0.654
3.131 kPa, m1 = 0.5325 | 0.648
3.132 kPa, m1 = 0.47 | 0.72
3.133 kPa, m1 = 0.4627 | 0.704
3.139 kPa, m1 = 0.3871 | 0.705
3.144 kPa, m1 = 0.3032 | 0.75
3.145 kPa, m1 = 0.3044 | 0.714
3.155 kPa, m1 = 0.1575 | 0.856
3.162 kPa, m1 = 0.0754 | 0.885
3.17 kPa, m1 = 0 | 1
